Measurements reported in patent US6713077B1, “Control of shoot/foliar feeding pests with pesticide seed treatments” (Monsanto Technology, LLC, priority 1999, dated 2004).
Like-named read-outs stand apart in the source and are kept apart here.

Legend:
black cutworm larvae [1] = assay: Example 8: stand reduction of corn by black cutworm, RAZE versus WARRIOR T seed treatment; format: in vivo; settings: band w/ incorporation 30 (grams/hectare)
Procedure: A lambda-cyhalothrin seed treatment formulation was prepared from WARRIOR T 11.4 CS formulation (Zeneca Ag Products, Wilmington, Del.), as described in Example 1. Also, a tefluthrin seed treatment formulation was prepared from RAZE […] formulation (available from Wilbur-Ellis Co.), by the same method. Each of these seed treatment formulations were applied for one minute at room temperature to twenty-five grams of Pioneer corn seed (Cultivar PN3394) in a rotostatic seed treater at the treatment rates noted in Table 9, below. The treated seeds were allowed to sit uncapped for four to twenty-four hours before planting.
Treated and untreated seeds (Pioneer hybrid PN3394) were planted in a soil mix consisting of Dupo silt loam, 30% Perlite, 20% coarse sand (WB-10 grade) in six groups of tubs (20 in. L×15 in. W×8 in. D). Twelve seeds were planted per tub and three tubs were planted for each treatment regimen. Soil applications of FORCE 3GR, which contains 3% tefluthrin as the active ingredient, were used for two sets of tubs containing untreated seeds. […]
(§1) The corn plants were infested at 12 DAP, which corresponds to late growth stage 11 by placing two black cutworm larvae at 3/4 instar on the soil surface near the base of the plant. […] The percent stand reduction due to plant cutting was calculated by dividing the number of cut plants into the number of plants present at infestation.

[2] = cited from earlier work
black cutworm larvae [3] = assay: Example 5: stand reduction of corn by black cutworm, lambda cyhalothrin or tefluthrin seed treatment; format: in vivo; settings: band w/ incorporation 30 (grams/hectare)
Procedure: A lambda-cyhalothrin seed treatment formulation was prepared from the WARRIOR T insecticide and corn seed was prepared and treated as described in Example 1, except that the treatment levels were 125, 228 and 358 gm active ingredient/100 kg seed. A tefluthrin seed treatment formulation was also prepared from RAZE 2.5 FS, which contains tefluthrin as the active ingredient, into water as a carrier. Treated and untreated seeds were planted and cultivated as described as described in Example 1. Again, FORCE 3GR was applied and incorporated into a 5 inch band on the soil surface at the time of planting. The tubs were overhead irrigated until the plants were infested with black cutworm larvae.
The corn plants were infested at 12 DAP, as described in Example 1. Plants were rated at 10 days after infestation (DAI) for the number of cut plants. The percent stand reduction due to plant cutting was calculated by dividing the number of cut plants into the number of plants present at infestation.

black cutworm larvae [4] = assay: Example 7: stand reduction of corn by black cutworm, bifenthrin, lambda-cyhalothrin and tefluthrin seed treatment; format: in vivo; settings: seed treatment 209 gm AI/100 kg of seed
Procedure: A lambda-cyhalothrin seed treatment formulation was prepared from WARRIOR T 11.4 CS formulation (Zeneca Ag Products, Wilmington, Del.), as described in Example 1. A seed treatment formulation was also prepared by the method as described in Example 1, except from CAPTURE® 2 EC (bifenthrin; available from FMC). Also, a seed treatment formulation was prepared from RAZE 2.5 FS formulation (available from Wilbur-Ellis Co.), containing 26.8% tefluthrin. Each of these seed treatment formulations were applied for one minute at room temperature to twenty-five grams of Pioneer corn seed (Cultivar PN3394) in a rotostatic seed treater at the treatment rates noted in Table 8, below. The treated seeds were allowed to sit uncapped for four to twenty-four hours before planting.
Treated and untreated seeds (Pioneer hybrid PN3394) were planted in a soil mix consisting of Dupo silt loam, 30% Perlite, 20% coarse sand (WB-10 grade) in six groups of tubs (20 in. L×15 in. W×8 in. D). Twelve seeds were planted per tub and three tubs were planted for each treatment regimen. […]
as §1

[5] = temperature not given; cited from earlier work

Structure (SMILES)	STAND REDUCTION (%, 10 days after infestation) (black cutworm larvae [1])	Vapor pressure ([2]; 20° C.)	STAND REDUCTION (%, 10 days after infestation) (black cutworm larvae [3])	STAND REDUCTION (%, 10 days after infestation) (black cutworm larvae [4])	Vapor pressure ([2]; 25° C.)	Water solubility [5]
Cc1c(F)c(F)c(COC(=O)[C@@H]2[C@H](/C=C(\Cl)C(F)(F)F)C2(C)C)c(F)c1F (racemic) [Tefluthrin, (2,3,5,6-tetrafluoro-4-methylphenyl)-methyl-(1 alpha, 3 alpha)-(Z)-(±)-3-(2-chloro-3,3,3-trifluoro-1-propenyl)-2,2-dimethylcyclopropanecarboxylate]	total protection	8 mPa	total protection	–	–	–
Cc1c(COC(=O)C2C(C=C(Cl)C(F)(F)F)C2(C)C)cccc1-c1ccccc1 (stereo not drawn) [Bifenthrin, (2-methyl [1,1′-biphenyl]-3-yl)methyl 3-(2-chloro-3,3,3-trifluoro-1-propenyl)-2,2-dimethyl-cyclopropanecarboxylate]	–	–	–	total protection	0.024 mPa	0.1 µg/mL
